# Measurements as given in patent US6890305B2, “Reagent and method for measuring lung function” (Cambridge Isotope Laboratories, priority 2002, dated 2005).
# Experiment: 13C-sodium bicarbonate breath test in one asthma patient, pre vs post inhaler medication
# Assay type: in vivo, human
# Details: breath test 45 minutes post medication vs pre-medication, advair and albuterol taken together, FIG. 4
# Method: FIG. 3 exemplifies two such breath curves.
# In this embodiment, the slope of the Δ ^13CO2 curve at time points t1 and t2 is calculated according to the following equation: slope={(Δ ^13CO2)2−(Δ ^13CO2)1}/(t2−t1)
# As an example, the slope of the curve of FIG. 4 can be measured at the 10 minute time point and the 20 minute time point, to give a variable for determining lung function. […] It can be seen from FIG. 4 that the individual post-medication curve has a steeper slope for the 10 and 20 minute time point interval than prior to the medication, indicating an improved lung function. These specific time values are exemplary only and other time periods or half life of the disappearance curve can be used.
# This example describes the monitoring of the reduction in airway resistance in one asthma patient following inhaler medication therapy—advair (fluticasone propionate 100 mcg and salmeterol 50 mcg inhalation powder) and albuterol (racemic (α^1-[(tert-butylamino)methyl]-4-hydroxy-m-xylene-α,α′-diol, commercially available as Ventolin®, Proventil®) a relatively selective beta2-adrenergic bronchodilator.
# A breath test was performed at 7 am before the patient ingested any asthma medication. The medication was taken at 8:15 am.
smiles,measurement,value
CC(C)(C)NCC(O)c1ccc(O)c(CO)c1 (racemic) [albuterol],"AUC of expired Δ13CO2 breath curve (cumulative ‰×h), post vs pre medication",improvement
same,"slope of Δ13CO2 breath curve between 10-20 minutes, post vs pre medication",possibly the slope (steepening)
